According to patent publication US20050234029A1, “Compounds” (priority 2002, published 2005):

Target: T1, recombinant GST-ALK5 (residues 198-503) (Homo sapiens, UniProt P36897)
T1 construct: assays using recombinant GST-ALK5 (residues 198-503)
T1 sequence (P36897 198-503): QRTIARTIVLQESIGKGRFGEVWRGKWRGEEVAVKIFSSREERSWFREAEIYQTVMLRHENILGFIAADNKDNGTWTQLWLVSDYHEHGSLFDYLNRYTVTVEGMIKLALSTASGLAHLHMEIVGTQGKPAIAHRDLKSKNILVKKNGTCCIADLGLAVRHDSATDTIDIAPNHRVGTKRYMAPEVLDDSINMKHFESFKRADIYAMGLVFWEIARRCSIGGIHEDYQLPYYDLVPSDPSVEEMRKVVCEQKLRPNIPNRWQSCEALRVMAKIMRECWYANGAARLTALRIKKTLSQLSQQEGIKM
Assay: Alk5 fluorescence polarization assay
Format: binding
Conditions: rhodamine green-labelled ligand 1 nM, ALK5 10 nM, read-out: ALK5 receptor modulator activity (IC50)
Description: Assay 2 (Alk5 Fluorescence Polarization Assay)
Kinase inhibitor compounds conjugated to fluorophores, can be used as fluorescent ligands to monitor ATP competitive binding of other compounds to a given kinase. The increase in depolarization of plane polarized light, caused by release of the bound ligand into solution, is measured as a polarization/anisotropy value. This protocol details the use of a rhodamine green-labelled ligand for assays using recombinant GST-ALK5 (residues 198-503).
Assay buffer components: 62.5 mM Hepes pH 7.5 (Sigma H-4034), 1 mM DTT (Sigma D-0632), 12.5 mM MgCl2 (Sigma M-9272), 1.25 mM CHAPS (Sigma C-3023). […]
ALK5 was added to assay buffer containing the above components and 1 nM of the rhodamine green-labelled ligand so that the final ALK5 concentration was 10 nM based on active site titration of the enzyme. […] The plates were read immediately on a LJL Acquest fluorescence reader (Molecular Devices, serial number AQ1048) with excitation, emission, and dichroic filters of 485 nm, 530 nm, and 505 nm, respectively. The fluorescence polarization for each well was calculated by the Acquest reader and then imported into curve fitting software for construction of concentration response curves. The normalized response was determined relative to the high controls (1 μl DMSO in column 12, rows A-D) and the low controls (1 μl of control compound in column 12, rows E-H). […]

| Compound | IC50 |
| --- | --- |
| Cc1ccn2c(-c3ccnc(-c4ccc(OCCN5CCCC5)cc4)c3)c(-c3cccc(C)n3)nc2c1 [Example 38, 7-Methyl-2-(6-methyl-pyridin-2-yl)-3-{2-[4-(2-(pyrrolidin-1-yl)ethoxy)phenyl]-pyridin-4-yl}-imidazo[1,2-a]pyridine] | 15 nM |
| Cc1cccc(-c2nc3ccccn3c2-c2ccnc(-c3ccc(S(C)(=O)=O)cc3)c2)n1 [Example 6, 3-[2-(4-Methanesulfonyl-phenyl)-pyridin-4-yl]-2-(6-methyl-pyridin-2-yl)-imidazo[1,2-a]pyridine] | 11 nM |

Tested on: not given
Assay: not given
Conditions: not given

| Compound | melting point |
| --- | --- |
| CCN1CCN(C(=O)c2ccc(-c3cc(-c4c(-c5cccc(C)n5)nc5c(C)cccn45)ccn3)cc2)CC1 [Example 32, 8-Methyl-2-(6-methyl-pyridin-2-yl)-3-{2-[4-((1-ethyl-piperazin-4-yl)carbonyl)phenyl]-pyridin-4-yl}-imidazo[1,2-a]pyridine] | 212 °C |
| O=C(c1ccc(-c2cc(-c3c(-c4cccc(F)n4)nc4ccccn34)ccn2)cc1)N1CCOCC1 [Example 33, 2-(6-Fluoro-pyridin-2-yl)-3-{2-[4-((morpholiny-4-yl)carbonyl)phenyl]-pyridin-4-yl}-imidazo[1,2-a]pyridine] | 191 °C |
| Cc1cccc(-c2nc3ccc(Cl)cn3c2-c2ccnc(-c3ccc(CN4CCCC4)cc3)c2)n1 [Example 23, 6-Chloro-2-(6-methyl-pyridin-2-yl)-3-[2-(4-(pyrrolidin-1-yl-methyl)phenyl)-pyridin-4-yl]-imidazo[1,2-a]pyridine] | 134 °C |
| Cc1cccc(-c2nc3ccc(Cl)cn3c2-c2ccnc(-c3ccc(CN4CCOCC4)cc3)c2)n1 [Example 21, 6-Chloro-2-(6-methyl-pyridin-2-yl)-3-[2-(4-(morpholin-4-yl-methyl)phenyl)-pyridin-4-yl]-imidazo[1,2-a]pyridine] | 157 °C |
| Cc1ccn2c(-c3ccnc(-c4ccc(OCCN5CCCC5)cc4)c3)c(-c3cccc(C)n3)nc2c1 [Example 38, 7-Methyl-2-(6-methyl-pyridin-2-yl)-3-{2-[4-(2-(pyrrolidin-1-yl)ethoxy)phenyl]-pyridin-4-yl}-imidazo[1,2-a]pyridine] | 163 °C |
| COc1ccc(-c2cc(-c3c(-c4cccc(C)n4)nc4ccccn34)ccn2)cc1 [Example 2, 3-[2-(4-methoxy-phenyl)-pyridin-4-yl]-2-(6-methyl-pyridin-2-yl)-imidazo[1,2-a]pyridine] | 174 °C |
| Cc1ccn2c(-c3ccnc(-c4ccc(CN5CCOCC5)cc4)c3)c(-c3cccc(C)n3)nc2c1 [Example 22, 7-Methyl-2-(6-methyl-pyridin-2-yl)-3-[2-(4-(morpholin-4-yl-methyl)phenyl)-pyridin-4-yl]-imidazo[1,2-a]pyridine] | 188 °C |
| Clc1cccc(-c2nc3ccccn3c2-c2ccnc(-c3ccc(OCCN4CCCC4)cc3)c2)c1 [Example 37, 2-(3-Chloro-phenyl)-3-{2-[4-(2-(pyrrolidin-1-yl)ethoxy)phenyl]-pyridin-4-yl}-imidazo[1,2-a]pyridine] | 298 °C |
| CS(=O)(=O)Nc1ccc(-c2cc(-c3c(-c4cccc(Cl)c4)nc4ccccn34)ccn2)cc1 [Example 11, 2-(3-chloro-phenyl)-3-[2-(4-(methanesulfonylamino)phenyl)-pyridin-4-yl]-imidazo[1,2-a]pyridine] | 60 °C |
| Cc1cccc(-c2nc3ccccn3c2-c2ccnc(-c3ccc(C#N)cc3)c2)n1 [Example 4] | 214 °C |
| CC(=O)Nc1ccc(-c2cc(-c3c(-c4cccc(C)n4)nc4ccccn34)ccn2)cc1 [Example 10, 3-[2-(4-(methylcarbonylamino)phenyl)-pyridin-4-yl]-2-(6-methyl-pyridin-2-yl)-imidazo[1,2-a]pyridine] | 257 °C |
| CC(=O)c1ccc(-c2cc(-c3c(-c4ccccn4)nc4ccccn34)ccn2)cc1 [Example 8, 3-[2-(4-(Acetyl)phenyl)-pyridin-4-yl]-2-(pyridin-2-yl)-imidazo[1,2-a]pyridine] | 214 °C |
| Fc1ccc(-c2nc3ccccn3c2-c2ccnc(-c3ccc(CN4CCCC4)cc3)c2)cc1F [Example 19, 2-(3,4-Difluoro-phenyl)-3-[2-(4-(pyrrolidin-1-yl-methyl)phenyl)-pyridin-4-yl]-imidazo[1,2-a]pyridine] | 155 °C |
| CS(=O)(=O)c1ccc(-c2cc(-c3c(-c4ccccn4)nc4ccccn34)ccn2)cc1 [Example 5, 3-[2-(4-Methanesulfonyl-phenyl)-pyridin-4-yl]-2-pyridin-2-yl-imidazo[1,2-a]pyridine] | 242 to 244 °C |
| CC(=O)Nc1ccc(-c2cc(-c3c(-c4ccccn4)nc4ccccn34)ccn2)cc1 [Example 9, 3-[2-(4-(Methylcarbonylamino)phenyl)-pyridin-4-yl]-2-pyridin-2-yl-imidazo[1,2-a]pyridine] | 133 °C |
| Fc1ccc(-c2nc3ccccn3c2-c2ccnc(-c3ccc(CN4CCOCC4)cc3)c2)cc1Cl [Example 18, 2-(3-Chloro-4-fluoro-phenyl)-3-[2-(4-(morpholin-4-yl-methyl)phenyl)-pyridin-4-yl]-imidazo[1,2-a]pyridine] | 189 °C |
| Cc1cccc(-c2nc3ccccn3c2-c2ccnc(-c3ccc(OC(F)(F)F)cc3)c2)n1 [Example 3, 2-(6-methyl-pyridin-2-yl)-3-[2-(4-trifluoromethoxy-phenyl)-pyridin-4-yl]-imidazo[1,2-a]pyridine] | 120 °C |
| Fc1ccc(-c2nc3ccccn3c2-c2ccnc(-c3ccc(CN4CCOCC4)cc3)c2)cc1F [Example 20, 2-(3,4-Difluoro-phenyl)-3-[2-(4-(morpholin-1-yl-methyl)phenyl)-pyridin-4-yl]-imidazo[1,2-a]pyridine] | 205 °C |
| Cc1cccc(-c2nc3c(C)cccn3c2-c2ccnc(-c3ccc(CN4CCOCC4)cc3)c2)n1 [Example 24, 8-Methyl-2-(6-methyl-pyridin-2-yl)-3-{2-[4-((morpholin-4-yl)methyl)phenyl]-pyridin-4-yl}-imidazo[1,2-a]pyridine] | 122 °C |
| O=C(NC1CCOCC1)c1ccc(-c2cc(-c3c(-c4ccccn4)nc4ccccn34)ccn2)cc1 [Example 26, 3-[2-(4-((Tetrahydropyran-4-yl)aminocarbonyl)phenyl)-pyridin-4-yl]-2-pyridin-2-yl-imidazo[1,2-a]pyridine] | 179 °C |
| Cc1cccc(-c2nc3ccccn3c2-c2ccnc(-c3ccc(C(=O)NC4CCOCC4)cc3)c2)n1 [Example 27, 3-[2-(4-((tetrahydropyran-4-yl)aminocarbonyl)phenyl)-pyridin-4-yl]-2-(6-methyl-pyridin-2-yl)-imidazo[1,2-a]pyridine] | 128 °C |
| c1ccc(-c2nc3ccccn3c2-c2ccnc(-c3ccc(CN4CCOCC4)cc3)c2)nc1 [Example 17, 3-[2-(4-(Morpholin-4-yl-methyl)-phenyl)-pyridin-4-yl]-2-pyridin-2-yl-imidazo[1,2-a]pyridine] | 80 °C (dec.) |

Tested on: TGF-β signalling (PAI-1 promoter-luciferase in HepG2 cells)
Assay: Cellular transcriptional assay (PAI-1 promoter luciferase reporter)
Format: cell-based
Conditions: Homo sapiens, PAI-1 promoter firefly luciferase, rhTGFβ-1 1 ng/mL
Description: Assay 1 (Cellular Transcriptional Assay)
These plates were placed in a cell incubator.
Columns 11 and 12 were employed as controls.

| Compound | IC50 |
| --- | --- |
| Cc1ccn2c(-c3ccnc(-c4ccc(OCCN5CCCC5)cc4)c3)c(-c3cccc(C)n3)nc2c1 [Example 38, 7-Methyl-2-(6-methyl-pyridin-2-yl)-3-{2-[4-(2-(pyrrolidin-1-yl)ethoxy)phenyl]-pyridin-4-yl}-imidazo[1,2-a]pyridine] | 127 nM |
| Cc1cccc(-c2nc3ccccn3c2-c2ccnc(-c3ccc(S(C)(=O)=O)cc3)c2)n1 [Example 6, 3-[2-(4-Methanesulfonyl-phenyl)-pyridin-4-yl]-2-(6-methyl-pyridin-2-yl)-imidazo[1,2-a]pyridine] | 125 nM |
